The values below are quoted from earlier work in publication PMC6916687 (Drug Design, Development and Therapy, 2019).

What is called IC50 is the concentration needed to halve the response being measured.

One data set deals with QGY-7703 cells. As to conditions: read-out: IC50 for QGY-7703 cells.
The subject of a further data set is MDA-MB-231 cells. As to conditions: read-out: IC50 for MDA-MB-231 cells.

With `O=c1c2ccccc2oc2cc(-c3ccccc3)ccc12` [3-phenylxanthone], the IC50 with QGY-7703 cells was 6.27 µM.

`Cc1ccc2c(=O)c3cccc(CC(=O)O)c3oc2c1C` [DMXAA, 5,6-dimethylxanthone-4-acetic acid]: the IC50 in the data set with MDA-MB-231 cells is 48.4 µM.
